The text below walks through data of ChEMBL document CHEMBL4433247, “Discovery of 2,3'-diindolylmethanes as a novel class of PCSK9 modulators” (Bioorg Med Chem Lett, 2019).

Type in all cases: cell-based
Series [1] concerns the target T1, Proprotein convertase subtilisin/kexin type 9 (Homo sapiens, UniProt Q8NBP7). In words: Inhibition of human PCSK9 in HepG2 cells incubated for 48 hrs by AlphaLISA assay.
The subject of series [2] is HepG2. Briefly: Cytotoxicity against human HepG2 cells incubated for 24 hrs by MTT assay. As to conditions: hepg2, 24 h; call rule not given here.
The test system of series [3] is HepG2. In words: Cytotoxicity against human HepG2 cells at <50 uM incubated for 24 hrs by MTT assay. As to conditions: hepg2, 24 h.
Series [4] addresses T1, Proprotein convertase subtilisin/kexin type 9. Briefly: Inhibition of human PCSK9 in HepG2 cells incubated for 24 hrs followed by medium replenishment and measured after 24 hrs by ELISA.

T1 sequence (Q8NBP7 31-152 limits assumed): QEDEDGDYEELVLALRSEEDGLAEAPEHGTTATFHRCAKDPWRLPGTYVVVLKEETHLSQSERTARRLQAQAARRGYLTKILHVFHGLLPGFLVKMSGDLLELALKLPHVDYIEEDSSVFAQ
T1 sequence (Q8NBP7 153-692 limits assumed): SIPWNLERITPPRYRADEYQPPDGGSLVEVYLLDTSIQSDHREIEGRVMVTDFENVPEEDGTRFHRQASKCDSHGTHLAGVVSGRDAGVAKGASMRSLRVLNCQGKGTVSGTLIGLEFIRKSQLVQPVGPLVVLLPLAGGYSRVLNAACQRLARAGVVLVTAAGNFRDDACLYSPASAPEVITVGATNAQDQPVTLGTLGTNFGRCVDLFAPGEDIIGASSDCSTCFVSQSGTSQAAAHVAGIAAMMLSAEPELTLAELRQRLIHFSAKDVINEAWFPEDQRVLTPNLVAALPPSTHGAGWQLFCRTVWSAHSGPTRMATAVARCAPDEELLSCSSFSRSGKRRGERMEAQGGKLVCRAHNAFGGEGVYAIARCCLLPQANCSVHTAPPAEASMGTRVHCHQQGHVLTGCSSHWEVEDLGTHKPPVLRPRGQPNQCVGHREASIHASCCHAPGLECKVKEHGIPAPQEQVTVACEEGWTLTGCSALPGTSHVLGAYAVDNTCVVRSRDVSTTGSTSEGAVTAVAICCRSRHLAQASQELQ

For `Clc1ccc2[nH]cc(Cc3cc4ccccc4[nH]3)c2c1`, the IC50 in series [1] (read-out: IC50) turned out to be 10000 nM. Moreover, the Activity in the series on HepG2 [2] is more than 50 µM.
For `Cc1ccc2c(Cc3cc4ccccc4[nH]3)c[nH]c2c1`, in that order: 1400 nM and 45 µM.
The corresponding values for `Cc1ccc2[nH]cc(Cc3cc4ccccc4[nH]3)c2c1` are 5600 nM and more than 50 µM.
The corresponding values for `Cc1ccc(S(=O)(=O)n2c(Cc3c[nH]c4c(Cl)cccc34)c(C)c3ccccc32)cc1` are 2300 nM and more than 50 µM.
As for `Cc1ccc(S(=O)(=O)n2c(Cc3cn(C)c4ccccc34)c(C)c3ccccc32)cc1`, in series [1] (read-out: IC50), the IC50 was determined as 1500 nM. In the series on HepG2 [2], this compound came in with an Activity of 45 µM.
Consider `Brc1ccc2[nH]cc(Cc3cc4ccccc4[nH]3)c2c1`, for which, in series [1] (hepg2), the IC50 entry is recorded as “Not Active”.
As to `Cc1ccc(S(=O)(=O)n2c(Cc3cn(C)c4ccccc34)c(C(C)C)c3ccccc32)cc1`, the IC50 in series [1] (read-out: IC50) worked out at 1100 nM. Moreover, in the series with HepG2 [2], the Activity was more than 50 µM.
For `Cc1ccc(S(=O)(=O)n2c(Cc3cn(C)c4ccccc34)c(-c3ccccc3)c3ccccc32)cc1`, in that order: 2300 nM and 48 µM.
For `Clc1cccc2c(Cc3cc4ccccc4[nH]3)c[nH]c12`, in that order: 2800 nM and more than 50 µM.
For `Fc1ccc2[nH]c(Cc3c[nH]c4c(Cl)cccc34)cc2c1`, in that order: 250 nM and more than 50 µM.
Take `Fc1cccc2c(Cc3cc4ccccc4[nH]3)c[nH]c12`: the IC50 in series [1] (read-out: IC50) came out at 300 nM. This compound also gave an Activity in the series on HepG2 [2] of 38 µM.
For the compound `Fc1ccc2[nH]c(Cc3c[nH]c4c(F)cccc34)cc2c1`, the Activity entry with HepG2 [3] is “Non-Toxic”. In series [4], this compound showed an IC50 of 202 nM.
As for `Cc1cccc2c(Cc3cc4ccccc4[nH]3)c[nH]c12`, the IC50 in series [1] (read-out: IC50) was determined as 900 nM. In addition, the Activity in the series with HepG2 [2] was more than 50 µM.
